Reference: patent US8143393B2, “Substituted 4-amino-pyrrolotriazine derivatives useful for treating hyper-proliferative disorders and diseases associated with angiogenesis” (Bayer HealthCare LLC, priority 2005, dated 2012)
pIC50: −log10 of the molar value.

These compounds were tested against T1, FGFR-1 (Homo sapiens, UniProt P11362) (assay: FGFR-1 TR-FRET biochemical assay). Details: 0.6 uM ATP, 5 nM FGFR1-GST; bounds given in nM.
T1 construct: GST; made in house
Protocol: FGFR-1TR-FRET Biochemical Assay
The FGFR-1 Assay was performed on half well 96-well opaque plates (Costar 3915) in a LANCE format. LANCE is a homogenous time resolved fluormetry based application available through Perkin Elmer. For this assay, 50 uL reactions were set up using: 0.6 uM ATP (Sigma), 25 nM poly GT-biotin (CIS BIO International), 2 nM Eu-labelled phospho-Tyr Ab (PY20 PerkinElmer), 10 nM Streptavidin-APC (Perkin Elmer), 5 nM FGFR1-GST (generated by DRT, Bayer Healthcare), 1% DMSO, 50 mM HEPES pH 7.5, 10 mM MgCl2, 0.1 mM EDTA, 0.015% Brij, 0.1 mg/ml BSA, 0.1% B-mercaptoethanol. All reactions were initiated with the addition of enzyme and were left to incubate for one hour at room temperature. Time-resolved fluorescence was then read on a Perkin Elmer VictorV Multilabel counter. The reading protocol uses an excitation wavelength at 340 nm and emission reads at both 615 and 665 nm. Signal was calculated as a ratio: (Flourescence at 665 nm/Flourescence at 615 nM)*10000 for each well. The background control used for this assay is the signal produced with all assay components excluding ATP. For IC50 generation, compounds were added prior to the enzyme initiation. A 50-fold stock plate was made with compounds serially diluted 1:5 in a 50% DMSO/50% dH2O solution. A 1 μL addition of the stock to the assay wells gave final compound concentrations ranging from 10 μM-0.128 nM in 1% DMSO. The data were expressed as percent inhibition: % inhibition=100−((Signal with inhibitor−background)/(Signal without inhibitor−background))*100.

T1 sequence (P11362 22-822): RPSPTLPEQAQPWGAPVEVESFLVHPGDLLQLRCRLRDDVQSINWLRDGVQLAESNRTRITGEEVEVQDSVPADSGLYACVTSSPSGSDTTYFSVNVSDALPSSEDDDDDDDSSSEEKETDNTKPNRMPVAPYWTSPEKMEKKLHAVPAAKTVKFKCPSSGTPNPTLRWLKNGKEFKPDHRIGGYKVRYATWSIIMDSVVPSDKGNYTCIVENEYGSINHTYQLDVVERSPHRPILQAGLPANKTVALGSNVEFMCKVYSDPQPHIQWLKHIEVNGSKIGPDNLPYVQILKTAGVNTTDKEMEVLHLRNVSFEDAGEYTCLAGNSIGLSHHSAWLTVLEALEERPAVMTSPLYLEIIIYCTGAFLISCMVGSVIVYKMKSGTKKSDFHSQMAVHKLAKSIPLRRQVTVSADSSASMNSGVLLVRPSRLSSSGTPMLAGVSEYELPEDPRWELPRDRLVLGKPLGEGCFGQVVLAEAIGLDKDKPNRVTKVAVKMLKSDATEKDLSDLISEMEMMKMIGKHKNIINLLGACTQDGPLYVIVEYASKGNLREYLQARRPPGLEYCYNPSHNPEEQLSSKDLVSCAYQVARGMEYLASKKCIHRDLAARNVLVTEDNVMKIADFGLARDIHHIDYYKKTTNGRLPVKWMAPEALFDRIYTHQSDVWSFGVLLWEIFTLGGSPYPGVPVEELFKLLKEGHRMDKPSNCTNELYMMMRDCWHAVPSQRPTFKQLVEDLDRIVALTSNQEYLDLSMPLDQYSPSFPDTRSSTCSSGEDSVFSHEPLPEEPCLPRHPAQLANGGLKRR

IC50 | Compound
10 to 100 nM | Nc1ncnn2c(CN3CCOCC3)cc(-c3cc(F)c(NC(=O)Nc4cccc(C(F)(F)F)c4F)cc3F)c12 [Example 42, N-{4-[4-amino-7-(morpholin-4-ylmethyl)pyrrolo[2,1-f][1,2,4]triazin-5-yl]-2,5-difluorophenyl}-N′-[2-fluoro-3-(trifluoromethyl)phenyl]urea]
> 100 nM | CC(C)(C)c1ccccc1NC(=O)Nc1ccc(-c2cc(CN3CCOCC3)n3ncnc(N)c23)cc1 [Example 49, N-{4-[4-amino-7-(morpholin-4-ylmethyl)pyrrolo[2,1-f][1,2,4]triazin-5-yl]phenyl}-N′-(2-tert-butylphenyl)urea]
< 10 nM | CCc1cccc(NC(=O)Nc2ccc(-c3cc(CN4CCOCC4)n4ncnc(N)c34)cc2)c1 [Example 50, N-{4-[4-amino-7-(morpholin-4-ylmethyl)pyrrolo[2,1-f][1,2,4]triazin-5-yl]phenyl}-N′-(3-ethylphenyl)urea]
< 10 nM | Nc1ncnn2c(CN3CCOCC3)cc(-c3ccc(NC(=O)Nc4cc(C(F)(F)F)ccc4Cl)cc3)c12 [Example 52, N-{4-[4-amino-7-(morpholin-4-ylmethyl)pyrrolo[2,1-f][1,2,4]triazin-5-yl]phenyl}-N′-[2-chloro-5-(trifluoromethyl)phenyl]urea]
< 10 nM | CC(C)(C)c1ccnc(NC(=O)Nc2ccc(-c3cc(CN4CCOCC4)n4ncnc(N)c34)cc2)c1 [Example 53, N-{4-[4-amino-7-(morpholin-4-ylmethyl)pyrrolo[2,1-f][1,2,4]triazin-5-yl]phenyl}-N′-(4-tert-butylpyridin-2-yl)urea]
> 100 nM | Nc1ncnn2c(CN3CCOCC3)cc(-c3ccc(NC(=O)Nc4ccc(F)cn4)cc3)c12 [Example 55, N-{4-[4-amino-7-(morpholin-4-ylmethyl)pyrrolo[2,1-f][1,2,4]-triazin-5-yl]phenyl}-N′-(5-fluoropyridin-2-yl)urea]
> 100 nM | Cc1cccc(NC(=O)Nc2ccc(-c3cc(CN4CCOCC4)n4ncnc(N)c34)cc2)n1 [Example 57, N-{4-[4-amino-7-(morpholin-4-ylmethyl)pyrrolo[2,1-f][1,2,4]-triazin-5-yl]phenyl}-N′-(6-methylpyridin-2-yl)urea]
10 to 100 nM | Nc1ncnn2c(CN3CCOCC3)cc(-c3ccc(NC(=O)Nc4cccc(C(F)(F)F)c4F)cc3)c12 [Example 58, N-{4-[4-amino-7-(morpholin-4-ylmethyl)pyrrolo[2,1-f][1,2,4]-triazin-5-yl]phenyl}-N′-[2-fluoro-3-(trifluoromethyl)phenyl]urea]
10 to 100 nM | CC(=O)c1cccc(NC(=O)Nc2ccc(-c3cc(CN4CCOCC4)n4ncnc(N)c34)cc2)c1 [Example 59, N-(3-acetylphenyl)-N′-{4-[4-amino-7-(morpholin-4-ylmethyl)pyrrolo[2,1-f][1,2,4]triazin-5-yl]phenyl}urea]
> 100 nM | Nc1ncnn2c(CN3CCOCC3)cc(-c3ccc(NC(=O)Nc4ccc(Cl)cn4)cc3)c12 [Example 63, N-{4-[4-amino-7-(morpholin-4-ylmethyl)pyrrolo[2,1-f][1,2,4]triazin-5-yl]phenyl}-N′-(5-chloropyridin-2-yl)urea]
< 10 nM | Nc1ncnn2c(CN3CCOCC3)cc(-c3ccc(NC(=O)Nc4cc(C(F)(F)F)ccc4Cl)c(F)c3)c12 [Example 65, N-4-[4-amino-7-(morpholin-4-ylmethyl)pyrrolo[2,1-f][1,2,4]triazin-5-yl]-2-fluorophenyl-N′-[2-chloro-5-(trifluoromethyl)phenyl]urea]
10 to 100 nM | Nc1ncnn2c(CN3CCOCC3)cc(-c3ccc(NC(=O)Nc4cccc(Cl)c4)c(F)c3)c12 [Example 66, N-4-[4-amino-7-(morpholin-4-ylmethyl)pyrrolo[2,1-f][1,2,4]triazin-5-yl]-2-fluorophenyl-N′-(3-chlorophenyl)urea]
< 10 nM | Nc1ncnn2c(CN3CCOCC3)cc(-c3ccc(NC(=O)Nc4cccc(Br)c4)c(F)c3)c12 [Example 67, N-4-[4-amino-7-(morpholin-4-ylmethyl)pyrrolo[2,1-f][1,2,4]triazin-5-yl]-2-fluorophenyl-N′-(3-bromophenyl)urea]
< 10 nM | CCc1cccc(NC(=O)Nc2ccc(-c3cc(CN4CCS(=O)(=O)CC4)n4ncnc(N)c34)cc2F)c1 [Example 75, N-(4-{4-amino-7-[(1,1-dioxidothiomorpholin-4-yl)methyl]pyrrolo[2,1-f][1,2,4]triazin-5-yl}-2-fluorophenyl)-N′-(3-ethylphenyl)urea]
< 10 nM | Nc1ncnn2c(CN3CCS(=O)(=O)CC3)cc(-c3ccc(NC(=O)Nc4cccc(C(F)(F)F)c4)c(F)c3)c12 [Example 77, N-(4-{4-amino-7-[(1,1-dioxidothiomorpholin-4-yl)methyl]pyrrolo[2,1-f][1,2,4]triazin-5-yl}-2-fluorophenyl)-N′-[3-(trifluoromethyl)phenyl]urea]
< 10 nM | Nc1ncnn2c(CN3CCS(=O)(=O)CC3)cc(-c3ccc(NC(=O)Nc4cc(C(F)(F)F)ccn4)c(F)c3)c12 [Example 78, N-(4-{4-amino-7-[(1,1-dioxidothiomorpholin-4-yl)methyl]pyrrolo[2,1-f][1,2,4]triazin-5-yl}-2-fluorophenyl)-N′-[4-(trifluoromethyl)pyridin-2-yl]urea]
< 10 nM | Nc1ncnn2c(CN3CCS(=O)(=O)CC3)cc(-c3ccc(NC(=O)Nc4cc(C(F)(F)F)ccc4F)c(F)c3)c12 [Example 79, N-(4-{4-amino-7-[(1,1-dioxidothiomorpholin-4-yl)methyl]pyrrolo[2,1-f][1,2,4]triazin-5-yl}-2-fluorophenyl)-N′-[2-fluoro-5-(trifluoromethyl)phenyl]urea]
> 100 nM | CC(C)(C)OC(=O)N1CCN(Cc2cc(-c3ccc(NC(=O)Nc4cc(C(F)(F)F)ccc4F)cc3)c3c(N)ncnn23)CC1 [Example 80, tert-butyl 4-[(4-amino-5-{4-[({[2-fluoro-5-(trifluoromethyl)phenyl]amino}carbonyl)amino]phenyl}pyrrolo[2,1-f][1,2,4]triazin-7-yl)methyl]piperazine-1-carboxylate]
< 10 nM | Nc1ncnn2c(CN3CCNCC3)cc(-c3ccc(NC(=O)Nc4cc(C(F)(F)F)ccc4F)cc3)c12 [Example 81, N-4-[4-amino-7-(piperazin-1-ylmethyl)pyrrolo[2,1-f][1,2,4]triazin-5-yl]phenyl-N′-[2-fluoro-5-(trifluoromethyl)phenyl]urea]
10 to 100 nM | CC(C)(C)OC(=O)N1CCN(Cc2cc(-c3ccc(NC(=O)Nc4cc(C(F)(F)F)ccc4F)c(F)c3)c3c(N)ncnn23)CC1 [Example 82, tert-butyl 4-[(4-amino-5-{3-fluoro-4-[({[2-fluoro-5-(trifluoromethyl)phenyl]amino}carbonyl)amino]phenyl}pyrrolo[2,1-f][1,2,4]triazin-7-yl)methyl]piperazine-1-carboxylate]
10 to 100 nM | CCS(=O)(=O)N1CCN(Cc2cc(-c3ccc(NC(=O)Nc4cc(C(F)(F)F)ccc4F)cc3)c3c(N)ncnn23)CC1 [Example 84, N-[4-(4-amino-7-{[4-(ethylsulfonyl)piperazin-1-yl]methyl}pyrrolo[2,1-f][1,2,4]triazin-5-yl)phenyl]-N′-[2-fluoro-5-(trifluoromethyl)phenyl]urea]
10 to 100 nM | CC(C)S(=O)(=O)N1CCN(Cc2cc(-c3ccc(NC(=O)Nc4cc(C(F)(F)F)ccc4F)cc3)c3c(N)ncnn23)CC1 [Example 85, N-[4-(4-amino-7-{[4(isopropylsulfonyl)piperazin-1-yl]methyl}pyrrolo[2,1-f][1,2,4]triazin-5-yl)phenyl]-N′-[2-fluoro-5-(trifluoromethyl)phenyl]urea]
10 to 100 nM | Nc1ncnn2c(CN3CCN(S(=O)(=O)CC(F)(F)F)CC3)cc(-c3ccc(NC(=O)Nc4cc(C(F)(F)F)ccc4F)cc3)c12 [Example 86, N-{4-[4-amino-7-({4-[(2,2,2-trifluoroethyl)sulfonyl]piperazin-1-yl}methyl)pyrrolo[2,1-f][1,2,4]triazin-5-yl]phenyl}-N′-[2-fluoro-5-(trifluoromethyl)phenyl]urea]
< 10 nM | CC(=O)N1CCN(Cc2cc(-c3ccc(NC(=O)Nc4cc(C(F)(F)F)ccc4F)c(F)c3)c3c(N)ncnn23)CC1 [Example 89, N-(4-{7-[(4-acetylpiperazin-1-yl)methyl]-4-aminopyrrolo[2,1-f][1,2,4]triazin-5-yl}-2-fluorophenyl)-N′-[2-fluoro-5-(trifluoromethyl)phenyl]urea]
10 to 100 nM | CC(=O)c1cc(-c2ccc(NC(=O)Nc3cc(C(F)(F)F)ccc3F)cc2)c2c(N)ncnn12 [Example 100, N-[4-(7-acetyl-4-aminopyrrolo[2,1-f][1,2,4]triazin-5-yl)phenyl]-N′-[2-fluoro-5-(trifluoromethyl)phenyl]urea]
10 to 100 nM | Nc1ncnn2c(C(=O)CN3CCOCC3)cc(-c3ccc(NC(=O)Nc4cc(C(F)(F)F)ccc4F)cc3)c12 [Example 103, N-{4-[4-amino-7-(morpholin-4-ylacetyl)pyrrolo[2,1-f][1,2,4]triazin-5-yl]phenyl}-N′-[2-fluoro-5-(trifluoromethyl)-phenyl]urea]

Same assay, conditions: upper bound of the bin 'greater than 100 nM but less than 1 μM' (lower bound in E1)

pIC50 | Compound
> 6.00 | CC(C)(C)c1ccccc1NC(=O)Nc1ccc(-c2cc(CN3CCOCC3)n3ncnc(N)c23)cc1 [Example 49, N-{4-[4-amino-7-(morpholin-4-ylmethyl)pyrrolo[2,1-f][1,2,4]triazin-5-yl]phenyl}-N′-(2-tert-butylphenyl)urea]
> 6.00 | Nc1ncnn2c(CN3CCOCC3)cc(-c3ccc(NC(=O)Nc4ccc(F)cn4)cc3)c12 [Example 55, N-{4-[4-amino-7-(morpholin-4-ylmethyl)pyrrolo[2,1-f][1,2,4]-triazin-5-yl]phenyl}-N′-(5-fluoropyridin-2-yl)urea]
> 6.00 | Cc1cccc(NC(=O)Nc2ccc(-c3cc(CN4CCOCC4)n4ncnc(N)c34)cc2)n1 [Example 57, N-{4-[4-amino-7-(morpholin-4-ylmethyl)pyrrolo[2,1-f][1,2,4]-triazin-5-yl]phenyl}-N′-(6-methylpyridin-2-yl)urea]
> 6.00 | Nc1ncnn2c(CN3CCOCC3)cc(-c3ccc(NC(=O)Nc4ccc(Cl)cn4)cc3)c12 [Example 63, N-{4-[4-amino-7-(morpholin-4-ylmethyl)pyrrolo[2,1-f][1,2,4]triazin-5-yl]phenyl}-N′-(5-chloropyridin-2-yl)urea]
> 6.00 | CC(C)(C)OC(=O)N1CCN(Cc2cc(-c3ccc(NC(=O)Nc4cc(C(F)(F)F)ccc4F)cc3)c3c(N)ncnn23)CC1 [Example 80, tert-butyl 4-[(4-amino-5-{4-[({[2-fluoro-5-(trifluoromethyl)phenyl]amino}carbonyl)amino]phenyl}pyrrolo[2,1-f][1,2,4]triazin-7-yl)methyl]piperazine-1-carboxylate]
